The values that follow are results of earlier work, collected in patent publication US9597306B1, “Fumarate compounds, pharmaceutical compositions thereof, and methods of use” (priority 2015, dated 2017).

Take `COC(=O)/C=C/C(=O)OC` [DMF, dimethylfumarate]: the aqueous solubility entry is recorded as “poor”.
